According to patent US4010264A, “7-[3-Substituted isoxazol-5-yl]-acetamido-cephalosporanic acids and their anti-bacterial use” (Koninklijke Nederlandsche Gist-en Spiritusfabriek N.V., priority 1970, dated 1977):
≈ marks a conversion by molar mass, not a printed value. Structures can show the parent of a compound that is named as a salt. Where two headings read alike, the source gives them in different places.

Experiments:
[1] = tested on: Bacillus subtilis ATCC 6633; assay: MIC, agar serial dilution test; assay type: cell-based
[2] = tested on: Staphylococcus aureus A55; assay: MIC, agar serial dilution test; assay type: cell-based
[3] = tested on: Staphylococcus aureus A321; assay: MIC, agar serial dilution test; assay type: cell-based
[4] = tested on: Streptococcus haemolyticus A266; assay: MIC, agar serial dilution test; assay type: cell-based
[5] = tested on: Streptococcus faecalis L 80; assay: MIC, agar serial dilution test; assay type: cell-based; conditions: Enterococcus faecalis
[6] = tested on: Diplococcus pneumoniae L 54; assay: MIC, agar serial dilution test; assay type: cell-based; conditions: Streptococcus pneumoniae
Brucella melitensis A488 = assay: microbe, parasite or virus in culture; assay type: cell-based; conditions: A488, 24 h
[7] = tested on: Pasteurella multocida A723; assay: MIC, agar serial dilution test; assay type: cell-based
[8] = tested on: Klebsiella pneumoniae A809; assay: MIC, agar serial dilution test; assay type: cell-based
[9] = tested on: Staphylococcus aureus A355 (penicillinase-producing); assay: MIC, agar serial dilution test; conditions: 24 h
[10] = tested on: Staphylococcus aureus L160a (penicillinase-producing); assay: MIC, agar serial dilution test; conditions: 24 h
[11] = ATCC6633, Bacillus subtilis ATCC 6633, 24 hours at 37° C, read-out: MIC
[12] = Staphylococcus aureus A55, 24 hours at 37° C, read-out: MIC
[13] = Staphylococcus aureus A321, 24 hours at 37° C, read-out: MIC
[14] = Streptococcus haemolyticus A266, 24 hours at 37° C, read-out: MIC
[15] = L80, Streptococcus faecalis L 80, 24 hours at 37° C, read-out: MIC
[16] = L54, Diplococcus pneumoniae L 54, 24 hours at 37° C, read-out: MIC
[17] = Pasteurella multocida A723, 24 hours at 37° C, read-out: MIC
[18] = Klebsiella pneumoniae A809, 24 hours at 37° C, read-out: MIC
[19] = Bacillus subtilis, ATCC6633, 24 h
[20] = Staphylococcus aureus, A55, 24 h
[21] = Staphylococcus aureus, A321, 24 h
[22] = Pasteurella multocida, A723, 24 h
[23] = Klebsiella pneumoniae, A809, 24 h

Row | Compound | MIC [1, 11] [µg/mL] | MIC [2, 12] [µg/mL] | MIC [3, 13] [µg/mL] | MIC [4, 14] [µg/mL] | MIC [5, 15] [µg/mL] | MIC [6, 16] [µg/mL] | MIC (Brucella melitensis A488) [µg/mL] | MIC [7, 17] [µg/mL] | MIC [8, 18] [µg/mL] | MIC [9] [µg/mL] | MIC [10] [µg/mL] | MIC [1, 19] [µg/mL] | MIC [2, 20] [µg/mL] | MIC [3, 21] [µg/mL] | MIC ([4]; Streptococcus, A266, 24 h) [µg/mL] | MIC ([5]; L80, 24 h) [µg/mL] | MIC ([6]; L54, 24 h) [µg/mL] | MIC [7, 22] [µg/mL] | MIC [8, 23] [µg/mL]
1 | CC1=C(C(=O)O)N2C(=O)C(NC(=O)Cc3onc(-c4c(C)cc(C)cc4C)c3C)C2SC1 (centres unmarked) [XIII, Sodium salt of 7-{[3-(2,4,6-trimethyl)phenyl-4-phenyl-methyl-isoxazol-5-yl]acetamido}desacetoxycephalosporanic acid] | 1 | 3 | 1.5 | 0.6 | 100 | 1.5 | > 100 | > 100 | > 100 | 6 | 6 | – | – | – | – | – | – | – | –
2 | CC1=C(C(=O)O)N2C(=O)C(NC(=O)Cc3onc(-c4c(Cl)cccc4Cl)c3C)C2SC1 (centres unmarked) [VIII, 7-{[3-(2,6-dichloro)phenyl-4-methyl-isoxazol-5-yl]acetamidodesacetoxycephalosporanic}acid] | 0.25 (≈ 0.518 µM) | 1.5 (≈ 3.11 µM) | 0.5 (≈ 1.04 µM) | 0.25 (≈ 0.518 µM) | 100 (≈ 207 µM) | 1 (≈ 2.07 µM) | 12.5 (≈ 25.9 µM) | 100 (≈ 207 µM) | > 100 | 3 (≈ 6.22 µM) | 3 (≈ 6.22 µM) | – | – | – | – | – | – | – | –
3 | CC1(C)SC2C(NC(=O)C(C(N)=O)c3cc(-c4c(Cl)cccc4Cl)no3)C(=O)N2C1C(=O)O (stereo not drawn) [Example XX, 6-{α-carbamyl-[3-(2,6-dichloro)phenyl-isoxazol-5-yl]acetamido} penicillanic acid] | 0.25 (≈ 0.487 µM) | 0.25 (≈ 0.487 µM) | 0.25 (≈ 0.487 µM) | 0.03 (≈ 0.0584 µM) | 0.5 (≈ 0.974 µM) | 0.06 (≈ 0.117 µM) | 3 (≈ 5.84 µM) | 6 (≈ 11.7 µM) | > 100 | 3 (≈ 5.84 µM) | 3 (≈ 5.84 µM) | – | – | – | – | – | – | – | –
4 | Cc1onc(-c2ccccc2Cl)c1C(=O)N[C@@H]1C(=O)N2[C@@H]1SC(C)(C)[C@@H]2C(=O)O [Cloxazilline, Cloxacillin, reference compound] | 0.25 (≈ 0.574 µM) | 0.12 (≈ 0.275 µM) | 0.06 (≈ 0.138 µM) | 0.25 (≈ 0.574 µM) | 25 (≈ 57.4 µM) | 1.5 (≈ 3.44 µM) | 100 (≈ 229 µM) | 6 (≈ 13.8 µM) | 6 (≈ 13.8 µM) | 0.5 (≈ 1.15 µM) | 1 (≈ 2.29 µM) | – | – | – | – | – | – | – | –
5 | CC(=O)OCC1=C(C(=O)O)N2C(=O)C(NC(=O)Cc3cc(C(C)(C)C)no3)C2SC1 (centres unmarked) [XXXIV, sodium 7-[3-(t-butyl)isoxazole-5-ylacetamido]-3-acetoxymethyl 3-cephem-4-carboxylate] | 0.75 | – | 1.5 | – | 12.5 | 0.25 | – | 3 | 12.5 | 1.5 | – | – | – | – | – | – | – | – | –
6 | CC(=O)OCC1=C(C(=O)O)N2C(=O)C(NC(=O)Cc3onc(-c4c(C)cc(C)cc4C)c3C)C2SC1 (centres unmarked) [XII, Sodium salt of 7-{[3-(2,4,6-trimethyl)phenyl-4-methyl-isoxazol-5-yl]acetamido}cephalosporanic acid] | 0.06 | 0.25 | 0.12 | 0.06 | 6 | 0.06 | 50 | 100 | > 100 | 0.25 | 0.25 | – | – | – | – | – | – | – | –
7 | Cc1cc(C)c(-c2cc(CC(=O)NC3C(=O)N4C3SC(C)(C)C4C(=O)O)on2)c(C)c1 (centres unmarked) [VI, Sodium salt of 6-{[3-(2,4,6-trimethyl)phenylisoxazol-5-yl]acetamido}penicillanic acid] | 0.03 | 0.06 | 0.06 | 0.012 | 0.25 | 0.03 | 3 | 12.5 | 100 | 3 | 0.5 | – | – | – | – | – | – | – | –
8 | CC1(C)SC2C(NC(=O)Cc3onc(-c4c(Cl)cccc4Cl)c3C#N)C(=O)N2C1C(=O)O (centres unmarked) [Example XV, Sodium salt of 6-{[3-(2,6-dichloro)phenyl-4-cyano-isoxazol-5-yl]acetamido}penicillanic acid] | 0.25 | 0.5 | 1 | 0.06 | 0.5 | 0.03 | 6 | 12.5 | > 100 | 12.5 | 12.5 | – | – | – | – | – | – | – | –
9 | CCOc1ccc2ccccc2c1C(=O)N[C@@H]1C(=O)N2[C@@H]1SC(C)(C)[C@@H]2C(=O)O [Nafcilline, Nafcillin, reference compound] | 0.5 (≈ 1.21 µM) | 0.12 (≈ 0.29 µM) | 0.25 (≈ 0.603 µM) | 0.015 (≈ 0.0362 µM) | 10 (≈ 24.1 µM) | 0.06 (≈ 0.145 µM) | 6 (≈ 14.5 µM) | 12.5 (≈ 30.2 µM) | 12.5 (≈ 30.2 µM) | 1 (≈ 2.41 µM) | 0.5 (≈ 1.21 µM) | – | – | – | – | – | – | – | –
10 | CC(=O)OCC1=C(C(=O)[O-])N2C(=O)C(NC(=O)Cc3onc(C)c3Cl)[C@H]2SC1.[Na+] (some centres unmarked) [XXXV, Sodium 7{[3-methyl-4-chloroisoxazole-5 yl]acetamido}-3-acetoxymethyl-3-cephem-4carboxylate] | – | – | – | – | – | – | 0.06 | – | – | 0.5 | 0.5 | 0.06 | 0.25 | 0.25 | 0.06 | 25 | 1 | 0.75 | 1.5
11 | CC1(C)SC2C(NC(=O)Cc3cc(-c4ccc([N+](=O)[O-])cc4)no3)C(=O)N2C1C(=O)O (centres unmarked) [XIX, Sodium salt of 6-{[3-p-nitrophenyl-isoxazol-5-yl]acetamido}penicillanic acid] | < 0.015 | 0.03 | 0.03 | 1.5 | 1 | 0.03 | 0.12 | 1 | 100 | 1 | 3 | – | – | – | – | – | – | – | –
12 | CC1(C)SC2C(NC(=O)Cc3cc(C45CC6CC(CC(C6)C4)C5)no3)C(=O)N2C1C(=O)O (centres unmarked) [Example XVI, Sodium salt of 6-{[3-(1)adamantyl-isoxazol-5-yl]acetamido} penicillanic acid] | 0.03 | 0.5 | 0.03 | < 0.015 | 0.25 | 0.06 | 3 | 6 | > 100 | 12.5 | 12.5 | – | – | – | – | – | – | – | –
13 | CC1(C)SC2C(NC(=O)Cc3onc(-c4c(Cl)cccc4Cl)c3C(N)=O)C(=O)N2C1C(=O)O (centres unmarked) [XIV, 6-{[3-(2,6-dichloro)phenyl-4-carbamyl-isoxazol-5-yl]acetamido} penicillanic acid] | 3 (≈ 5.84 µM) | 12.5 (≈ 24.3 µM) | 12.5 (≈ 24.3 µM) | 1.5 (≈ 2.92 µM) | 50 (≈ 97.4 µM) | 6 (≈ 11.7 µM) | 50 (≈ 97.4 µM) | 50 (≈ 97.4 µM) | > 100 | > 100 | > 100 | – | – | – | – | – | – | – | –
14 | CC1(C)SC2C(NC(=O)C(NC(=O)OCc3ccc([N+](=O)[O-])cc3)c3cc(-c4c(Cl)cccc4Cl)no3)C(=O)N2C1C(=O)O (stereo not drawn) [Example XVII, 6-{-α-p-nitro-benzyloxycarbonylamino-[3-(2,6-dichloro)phenylisoxazol-5-yl]acetamido}penicillanic acid] | 0.5 (≈ 0.752 µM) | 1 (≈ 1.5 µM) | 1 (≈ 1.5 µM) | 0.06 (≈ 0.0903 µM) | 3 (≈ 4.51 µM) | 0.5 (≈ 0.752 µM) | 25 (≈ 37.6 µM) | 50 (≈ 75.2 µM) | > 100 | 12.5 (≈ 18.8 µM) | 6 (≈ 9.03 µM) | – | – | – | – | – | – | – | –
15 | O=C(Cc1cccs1)N[C@@H]1C(=O)N2C(C(=O)[O-])=C(C[n+]3ccccc3)CS[C@H]12 [Cephaloridine, Cephaloridin, reference compound] | – | – | – | – | – | – | 3 (≈ 7.22 µM) | – | – | 0.12 (≈ 0.289 µM) | 0.06 (≈ 0.144 µM) | 0.06 (≈ 0.144 µM) | 0.06 (≈ 0.144 µM) | 0.06 (≈ 0.144 µM) | 0.015 (≈ 0.0361 µM) | 12.5 (≈ 30.1 µM) | 0.015 (≈ 0.0361 µM) | 1 (≈ 2.41 µM) | 3 (≈ 7.22 µM)
